Assay [1] deals with PRMT5-dependent Symmetric Di-methyl Arginine signal in HCT116 homozygous MTAP knockout cells. Nature of the assay: SYM11 In-Cell Western, HCT116 MTAP knockout. It counts as cell-based. The following applies: HCT116 homozygous MTAP knockout cells, 4 days of treatment, SYM11/DRAQ5 ratio, read-out: In-cell-Western (SYM11) HCT116 MTAP_KO IC50.
For assay [2], the system named is HCT116 homozygous MTAP knockout cells. Briefly: Proliferation assay (CellTiter-Glo, 10 days of treatment), HCT116 MTAP knockout. It counts as cell-based. The following applies: read-out: Proliferation HCT116MTAP_KO IC50. The essentials:
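Cells (250/well) seeded in McCoy's 5A with 10% FBS, then treated the next day with a PRMT5 inhibitor dose response at 37 °C, 5% CO2. On day 6 they were split 1:10 into fresh medium with the same compound concentration. CellTiter-Glo viability was read on day 11 and IC50 taken after 10 days of treatment.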
In general terms: ATP-based viability assays read luminescence as a measure of living cells.

Assay [3] addresses T1, PRMT5/MEP50 complex (Homo sapiens (Human), UniProt O14744). Nature of the assay: PRMT5:MEP50 HotSpot Assay (full-length histone H2A substrate, plus and minus MTA). It counts as biochemical. The settings on record: in the presence of 2 μM MTA. The essentials: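 Radiometric filter-binding format using recombinant full-length histone H2A as substrate. After the reaction was stopped, mixtures went onto filter paper and tritiated H2A was quantified by scintillation counting.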

In assay [4] the target is T1, PRMT5/MEP50 complex. Nature of the assay: PRMT5:MEP50 FlashPlate Assay (histone H4 peptide substrate, plus and minus MTA). It counts as biochemical. As for the experimental part:
The PRMT5 inhibitory activity of compounds of the present invention was determined using either a PRMT5:MEP50 FlashPlate Assay (Reaction Biology Corporation) or a PRMT5:MEP50 HotSpot Assay (Reaction Biology Corporation).
1. PRMT5:MEP50 FlashPlate Assay

In assay [5] the test system is PRMT5-dependent Symmetric Di-methyl Arginine signal in HCT116 parental cells. Briefly: SYM11 In-Cell Western, HCT116 parental. In kind it is cell-based. The following applies: Homo sapiens, HCT-116, 96 h, 4 days of treatment, SYM11/DRAQ5 ratio. As for the experimental part:
Control samples were analyzed in parallel.
Briefly, on Day 0, 2,000 HCT116 parental or HCT116 homozygous MTAP knockout cells were seeded in 96 well plates in McCoy's 5A supplemented with 10% fetal bovine serum and pen/strep and the cells were incubated overnight at 37° C. plus 5% CO2. The following day, cells were treated with DMSO vehicle control or a dose response of PRMT5 inhibitors, and incubated at 37° C. plus 5% CO^2 for four days.
After 4 days of treatment, the cells were fixed by adding 50 μl of 4% paraformaldehyde solution to each well and the cells were incubated for 20 min at room temperature. The paraformaldehyde solution was removed, 150 μl of ice-cold methanol was added and the plate was placed −20° C. for 10 minutes. The methanol was removed, 150 μl of Odyssey Blocking buffer+0.05% Tween20 was added and the plate was incubated at room temperature with shaking for one hour.
The primary SYM11 antibody solution was removed by aspiration and the wells were washed three consecutive times with phosphate buffered saline containing 0.1% Tween-20 (PBST).
The secondary antibody solution was removed by aspiration and the wells were washed three consecutive times with PB ST.
The SYM11 signal and the DRAQ5 signal were quantified using a Li-Cor Odyssey machine reading at […], respectively. The SYM11/DRAQ5 ratio was used to calculate the inhibition of Symmetric Dimethyl Arginine as percent of DMSO control.

The mark [6] stands for this setting: IC50 + 2 μM MTA (nM), in the presence of 2 μM MTA.

Structures are written as SMILES. Read-outs that look alike come from different tables or passages of the source. Bounds are passed on as bounds.

T1 sequence (O14744 2-637): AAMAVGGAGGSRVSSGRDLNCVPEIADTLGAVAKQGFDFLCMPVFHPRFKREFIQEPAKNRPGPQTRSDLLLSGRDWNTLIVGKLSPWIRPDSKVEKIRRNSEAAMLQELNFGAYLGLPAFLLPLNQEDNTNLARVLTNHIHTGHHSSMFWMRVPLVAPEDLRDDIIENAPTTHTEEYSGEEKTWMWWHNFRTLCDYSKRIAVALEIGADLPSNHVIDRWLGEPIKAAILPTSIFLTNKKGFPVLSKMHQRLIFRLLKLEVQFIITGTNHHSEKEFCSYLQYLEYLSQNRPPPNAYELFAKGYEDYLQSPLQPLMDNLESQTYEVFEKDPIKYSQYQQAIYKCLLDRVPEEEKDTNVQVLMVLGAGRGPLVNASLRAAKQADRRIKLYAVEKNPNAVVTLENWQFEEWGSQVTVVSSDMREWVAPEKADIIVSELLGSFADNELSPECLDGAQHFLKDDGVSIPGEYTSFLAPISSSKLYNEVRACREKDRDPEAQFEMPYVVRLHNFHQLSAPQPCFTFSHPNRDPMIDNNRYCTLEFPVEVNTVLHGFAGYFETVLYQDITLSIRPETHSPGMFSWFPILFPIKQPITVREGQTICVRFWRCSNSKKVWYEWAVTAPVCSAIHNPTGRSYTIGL
T1 sequence (Q9BQA1 2-342 partner): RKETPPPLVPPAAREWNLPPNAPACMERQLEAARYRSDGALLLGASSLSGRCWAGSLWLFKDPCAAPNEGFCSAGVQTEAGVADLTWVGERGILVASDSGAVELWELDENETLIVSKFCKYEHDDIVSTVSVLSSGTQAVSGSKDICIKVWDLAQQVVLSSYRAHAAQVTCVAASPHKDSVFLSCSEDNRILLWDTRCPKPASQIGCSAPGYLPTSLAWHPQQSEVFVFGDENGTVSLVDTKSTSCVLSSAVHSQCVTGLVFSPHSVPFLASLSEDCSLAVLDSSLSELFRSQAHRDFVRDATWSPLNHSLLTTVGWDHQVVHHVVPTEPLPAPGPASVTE

As to `Cn1ncc(-c2ccc3c(=O)[nH]nc(CN)c3c2)c1CC(C#N)c1ccccc1` (stereo not drawn) [Example 4-183, 3-(4-(4-(aminomethyl)-1-oxo-1,2-dihydrophthalazin-6-yl)-1-methyl-1H-pyrazol-5-yl)-2-phenylpropanenitrile], the IC50 came to 0.324 µM in assay [1] (Homo sapiens, HCT-116, 96 h); 0.897 µM in assay [2] (Homo sapiens, HCT-116, 240 h); 2.77 µM in assay [3] (IC50 + 2 μM MTA).
In the same order, the values of `NCc1n[nH]c(=O)c2ccc(-c3cnc4ccc(-c5ccccc5)nn34)cc12` [Example 4-191, 4-(aminomethyl)-6-(6-phenylimidazo[1,2-b]pyridazin-3-yl)phthalazin-1(2H)-one] are 0.911 µM, 1.52 µM and 0.612 µM.
As for `Cn1ncc(-c2ccc3c(=O)[nH]nc([C@@H](N)C(F)F)c3c2)c1-c1ccc2ccccc2c1C#N` [Example 9-7, 2-[4-[4-[(1R)-1-amino-2,2-difluoro-ethyl]-1-oxo-2H-phthalazin-6-yl]-2-methyl-pyrazol-3-yl]naphthalene-1-carbonitrile], the IC50 in assay [1] (Homo sapiens, HCT-116, 96 h) was greater than 1 µM; in assay [2] (Homo sapiens, HCT-116, 240 h) it was greater than 10 µM; in assay [3] (IC50 + 2 μM MTA) it was 2.56 µM.
In the same order, the values of `Cn1ncc(-c2ccc3c(=O)[nH]nc(CN)c3c2)c1-c1ccc2ccccc2c1Cl` [Example 4-181, 4-(aminomethyl)-6-(5-(1-chloronaphthalen-2-yl)-1-methyl-1H-pyrazol-4-yl)phthalazin-1(2H)-one] are 0.025 µM, 0.45 µM and 0.401 µM.
In the same order, the values of `Cn1ncc(-c2c(-c3ccc4c(=O)[nH]nc(CN)c4c3)cnn2C)c1C#N` [Example 4-186, 4-(4-(aminomethyl)-1-oxo-1,2-dihydrophthalazin-6-yl)-1′,2-dimethyl-1′H,2H-[3,4′-bipyrazole]-5′-carbonitrile] are 5.11 µM, 5.78 µM and 2.31 µM.
On to `Cn1ncc(-c2ccc3c(=O)[nH]nc(CN)c3c2)c1-c1ccc(-c2cnsc2)cc1C#N` [Example 12-4, 2-[4-[4-(aminomethyl)-1-oxo-2H-phthalazin-6-yl]-2-methyl-pyrazol-3-yl]-5-isothiazol-4-yl-benzonitrile], for which the IC50 in assay [1] (Homo sapiens, HCT-116, 96 h) is 0.436 µM; in assay [2] (Homo sapiens, HCT-116, 240 h), 4.37 µM; in assay [3] (IC50 + 2 μM MTA) it was 0.176 µM.
In the case of `Cn1ncc(-c2ccc3c(=O)[nH]nc(CN)c3c2)c1-c1cccc2ccncc12` [Example 4-222, 4-(aminomethyl)-6-(5-(isoquinolin-8-yl)-1-methyl-1H-pyrazol-4-yl)phthalazin-1(2H)-one], the IC50 in assay [1] (Homo sapiens, HCT-116, 96 h) came out at 0.296 µM; in assay [2] (Homo sapiens, HCT-116, 240 h) it was 5.34 µM; in assay [3] (IC50 + 2 μM MTA) it was 0.255 µM.
Take `Cn1ncc(-c2ccc3c(=O)[nH]nc(CN)c3c2)c1-c1cc(-c2cnsc2)ccc1C#N` [Example 12-7, 2-(4-(4-(aminomethyl)-1-oxo-1,2-dihydrophthalazin-6-yl)-1-methyl-1H-pyrazol-5-yl)-4-(isothiazol-4-yl)benzonitrile]: the IC50 amounted to 0.427 µM in assay [1] (Homo sapiens, HCT-116, 96 h); 4.99 µM in assay [2] (Homo sapiens, HCT-116, 240 h); 0.603 µM in assay [3] (IC50 + 2 μM MTA).
For `CC(N)c1n[nH]c(=O)c2ccc(-c3cnn(C)c3-c3cccc(Cl)c3C#N)cc12` (single isomer, unassigned) [Example 9-2, 2-[4-[4-(1-aminoethyl)-1-oxo-2H-phthalazin-6-yl]-2-methyl-pyrazol-3-yl]-6-chloro-benzonitrile], the IC50 in assay [1] was greater than 1 µM; in assay [4] (setting [6]), greater than 10000 nM; in assay [2], greater than 10 µM; in assay [3] (IC50 + 2 μM MTA) it was greater than 10 µM.
`CCOc1ccc(-c2c(-c3ccc4c(=O)[nH]nc(CN)c4c3)cnn2C)cc1` [Example 4-254, 4-(aminomethyl)-6-[5-(4-ethoxyphenyl)-1-methyl-pyrazol-4-yl]-2H-phthalazin-1-one]: the IC50 in assay [1] (Homo sapiens, HCT-116, 96 h) worked out at 0.377 µM; in assay [5], 3.33 µM; in assay [2] (Homo sapiens, HCT-116, 240 h), 2.17 µM.
On to `Cn1ncc(-c2ccc3c(=O)[nH]nc(CN)c3c2)c1-c1cc(Cl)ccc1C#N` [Example 4-103, 2-(4-(4-(aminomethyl)-1-oxo-1,2-dihydrophthalazin-6-yl)-1-methyl-1H-pyrazol-5-yl)-4-chlorobenzonitrile], for which the IC50 in assay [1] (Homo sapiens, HCT-116, 96 h) came to 0.255 µM; in assay [4] (setting [6]), 0.5 nM; in assay [4] (in the absence of MTA, read-out: IC50), 115 nM; in assay [5], 6.67 µM; in assay [2] (Homo sapiens, HCT-116, 240 h) it was 4.39 µM.
With `Cn1ncc(-c2ccc3c(=O)[nH]nc(CN)c3c2)c1-c1ccc(OC2CC2)c2cncn12` [Example 4-238, 4-(aminomethyl)-6-(5-(8-cyclopropoxyimidazo[1,5-a]pyridin-5-yl)-1-methyl-1H-pyrazol-4-yl)phthalazin-1(2H)-one], the IC50 was 0.843 µM in assay [1] (Homo sapiens, HCT-116, 96 h); 1.94 µM in assay [2] (Homo sapiens, HCT-116, 240 h); 2.31 µM in assay [3] (IC50 + 2 μM MTA).
Take `Cn1ncc(-c2ccc3c(=O)[nH]nc(CN)c3c2)c1-c1c(C#N)cc2ccccc2c1Cl` (single isomer, unassigned) [Example 16-6]: the values for the IC50 in assay [1], in assay [2] and in assay [3] (read-out: IC50 + 2 μM MTA) were 0.02 µM, 0.064 µM and 0.028 µM, respectively.
In the same order, the values of `Cn1ncc(-c2ccc3c(=O)[nH]nc(CN)c3c2)c1-c1c(C#N)cc2ccccc2c1Cl` (single isomer, unassigned) [Example 16-5] are 0.272 µM, 2.85 µM and 0.994 µM.
With `CC(N)c1n[nH]c(=O)c2ccc(-c3cnn(C)c3-c3cccc(Cl)c3C#N)cc12` (single isomer, unassigned) [Example 9-3, 2-[4-[4-(1-aminoethyl)-1-oxo-2H-phthalazin-6-yl]-2-methyl-pyrazol-3-yl]-6-chloro-benzonitrile], the values for the IC50 in assay [1], in assay [2] and in assay [3] (IC50 + 2 μM MTA) were 0.141 µM, 4.82 µM and 1.27 µM, respectively.
Regarding `Cn1cc(-c2ccc(-c3c(-c4ccc5c(=O)[nH]nc(CN)c5c4)cnn3C)c(C#N)c2)cn1` [Example 12-5, 2-(4-(4-(aminomethyl)-1-oxo-1,2-dihydrophthalazin-6-yl)-1-methyl-1H-pyrazol-5-yl)-5-(1-methyl-1H-pyrazol-4-yl)benzonitrile], the IC50 in assay [1] (Homo sapiens, HCT-116, 96 h) came to 0.456 µM; in assay [2] (Homo sapiens, HCT-116, 240 h) it was 3.17 µM; in assay [3] (IC50 + 2 μM MTA), 0.112 µM.
`Cn1ncc(-c2ccc3c(=O)[nH]nc(CN)c3c2)c1-c1cc(C#N)c2ccccc2c1C#N` [Example 4-207, 2-(4-(4-(aminomethyl)-1-oxo-1,2-dihydrophthalazin-6-yl)-1-methyl-1H-pyrazol-5-yl)naphthalene-1,4-dicarbonitrile]: the IC50 is 0.003 µM in assay [1] (Homo sapiens, HCT-116, 96 h); greater than 10 µM in assay [5]; 0.098 µM in assay [2] (Homo sapiens, HCT-116, 240 h).
On to `Cn1ncc(-c2c(-c3ccc4c(=O)[nH]nc(CN)c4c3)cnn2C)c1Cl` [Example 4-185, 4-(aminomethyl)-6-(5′-chloro-1′,2-dimethyl-1′H,2H-[3,4′-bipyrazol]-4-yl)phthalazin-1(2H)-one], for which the IC50 in assay [1] (Homo sapiens, HCT-116, 96 h) worked out at 0.167 µM; in assay [2] (Homo sapiens, HCT-116, 240 h), 3.02 µM; in assay [3] (IC50 + 2 μM MTA), 1.16 µM.
In the same order, the values of `Cn1ncc(-c2ccc3c(=O)[nH]nc(CN)c3c2)c1-c1cc(C2CCOC2)ccc1C#N` (stereo not drawn) [Example 12-8, 2-[4-[4-(aminomethyl)-1-oxo-2H-phthalazin-6-yl]-2-methyl-pyrazol-3-yl]-4-THF-3-yl-benzonitrile] are 2.86 µM, 7.8 µM and 3.86 µM.
As to `Cn1ncc(-c2ccc3c(=O)[nH]nc(CN)c3c2)c1-c1cccc2c1COC2` [Example 4-220, 4-(aminomethyl)-6-(5-(1,3-dihydroisobenzofuran-4-yl)-1-methyl-1H-pyrazol-4-yl)phthalazin-1(2H)-one], the IC50 worked out at 0.212 µM in assay [1] (Homo sapiens, HCT-116, 96 h); 5.16 µM in assay [2] (Homo sapiens, HCT-116, 240 h); 0.567 µM in assay [3] (IC50 + 2 μM MTA).
In the same order, the values of `Cn1ncc(-c2ccc3c(=O)[nH]nc(CN)c3c2)c1-c1cccc2c1COCC2` [Example 4-221, 4-(aminomethyl)-6-(5-(isochroman-8-yl)-1-methyl-1H-pyrazol-4-yl)phthalazin-1(2H)-one] are 0.196 µM, 2.38 µM and 0.501 µM.

Source of the values: patent US11479551B2, “MTA-cooperative PRMT5 inhibitors” (Mirati Therapeutics, Inc., priority 2019, dated 2022).
